Legend:
[1] = system: spring oilseed rape homozygous for HETO108 and HETO121; assay: Herbicide tolerance in the field, visible phytotoxicity; format: in vivo, Brassica napus; conditions: for pest or weed control at 50 g/ha: AI dose rate 50 gai/ha
Source text: (§1) Seeds of spring oilseed rape homozygous for HETO108 and HETO121 were sown in a field according to typical practical agricultural methods. The registered spring oilseed rape variety ABILITY served as a comparison. All plants were cultivated up to BBCH stage 14 (four true leaves of the oilseed rape plants). Afterwards, the herbicides mentioned in table 2 have been applied to the oilseed rape plants by using specific spray equipment for small plot applications. The water amount used was 200 L/ha.

[2] = system: spring oilseed rape variety ABILITY; assay: as above; format: in vivo, Brassica napus; conditions: for pest or weed control at 50 g/ha: AI dose rate 50 gai/ha
Source text: as §1

[3] = molecular target: T1, Arabidopsis thaliana P197S-mutant ALS (Arabidopsis thaliana, UniProt P17597, E575Q/P197S); assay: biochemical; conditions: for IC50: read-out: pI50 P197S (converted); for Resistance Factor P197S: relative to WT, from measured pI50
T1 construct: vector-encoded N-terminal fusion of pET-32a(+) (Trx/His/S tag by own knowledge); made in house; host or cells: Escherichia coli AD494
Description: (§2) Bacteria were grown at 37° C. in LB-medium containing 100 mg/1 carbenicillin and 25 mg/1 canamycin, induced with 1 mM isopropyl-β-D-thiogalactopyranoside at an OD600 of 0.6, cultivated for 16 hours at 18° C. and harvested by centrifugation. Bacterial pellets were resusupended in 100 mM sodium phosphate buffer pH 7.0 containing 0.1 mM thiamine-pyrophosphate, 1 mM MgCl2, and 1 μM FAD at a concentration of 1 gram wet weight per 25 ml of buffer and disrupted by sonification. The crude protein extract obtained after centrifugation was used for ALS activity measurements.
(§3) Assays were initiated by adding enzyme and terminated after 75 min incubation at 30° C. by the addition to 40 μl 0.5 M H2SO4. […] Reaction velocities were tiffed to the Michalis-Menten equation with the XLFit curve fitting program.

[4] = molecular target: T2, Arabidopsis thaliana W574L-mutant ALS (Arabidopsis thaliana, UniProt P17597, E575Q/W574L); assay: biochemical; conditions: for IC50: read-out: pI50 W574L (converted); for Resistance Factor W574L: relative to WT, from measured pI50
T2 construct: vector-encoded N-terminal fusion of pET-32a(+) (Trx/His/S tag by own knowledge); made in house; host or cells: Escherichia coli AD494
Description: as §2, §3

[5] = molecular target: T3, Arabidopsis thaliana wild-type ALS (Arabidopsis thaliana, UniProt P17597, E575Q); assay: biochemical; conditions: measured, crude extract of E. coli expressed enzyme; for IC50: read-out: pI50 WT (converted)
T3 construct: vector-encoded N-terminal fusion of pET-32a(+) (Trx/His/S tag by own knowledge); made in house; host or cells: Escherichia coli AD494
Description: as §2, §3

[6] = molecular target: T4, Arabidopsis thaliana S653N-mutant ALS (Arabidopsis thaliana, UniProt P17597, E575Q/S653N); assay: biochemical; conditions: for IC50: read-out: pI50 S653N (converted); for Resistance Factor S653N: relative to WT, from measured pI50
T4 construct: vector-encoded N-terminal fusion of pET-32a(+) (Trx/His/S tag by own knowledge); made in house; host or cells: Escherichia coli AD494
Description: as §2, §3

[7] = molecular target: T5, mixture of S653N and W574L ALS enzymes (Arabidopsis thaliana, UniProt P17597); format: biochemical; conditions: for pI50 S653N & W574L: calculated for a mixture of equal activities of the two enzymes, pI50=3.0 used where measured <4; for Resistance Factor S653N & W574L: relative to WT, calculated
T5 construct: crude E. coli extract was used
Description: as §3
(§4) To characterize the response of a mixture of two different ALS enzymes to a given ALS inhibitor the following assumptions were made: • a inhibition is competitive and reversible • b. in the absence of inhibitor, equal activities of the ALS (mutant) enzymes 1 and 2 are present
(§5) Using experimentally determined pI50-values for various ALS-inhibiting herbicides, enzyme activities at different inhibitor concentrations were calculated (see Theory) for each ALS enzyme. Total ALS activity at any given inhibitor concentration is the sum of the activity of (mutant) enzyme 1 and (mutant) enzyme 2. If the experimentally determined pI50-value was <4, pI50=3.0 was used for the calculations. If the calculated pI50-value was 3.0, the pI50 was redefined as <4.

[8] = molecular target: T6, mixture of P197S and W574L ALS enzymes (Arabidopsis thaliana, UniProt P17597); format: biochemical; conditions: for pI50 P197S & W574L: calculated for a mixture of equal activities of the two enzymes, pI50=3.0 used where measured <4; for Resistance Factor P197S & W574L: relative to WT, calculated
T6 construct: crude E. coli extract was used
Description: as §3, §4, §5

[9] = measured, crude extract of E. coli expressed enzyme
[10] = Brassica napus, topical, 432 h, HETO108-HETO121, field, 18 days after application, 0%=no phytotoxic effects, 100%=all plants killed, read-out: % phytotox
[11] = Brassica napus, topical, 432 h, ABILITY, field, 18 days after application, 0%=no phytotoxic effects, 100%=all plants killed, read-out: % phytotox
[12] = Brassica napus, topical, 432 h, read-out: % phytotox

Row | Compound | Resistance Factor P197S [3] | Resistance Factor W574L [4] | Resistance Factor S653N [6] | pI50 S653N & W574L [7] | Resistance Factor S653N & W574L [7] | pI50 P197S & W574L [8] | Resistance Factor P197S & W574L [8] | also measured
1 | COc1cc(OC)nc(NC(=O)NS(=O)(=O)N(C)S(C)(=O)=O)n1 [Amidosulfuron, amidosulfuron] | >501 | >501 | 0 | 5.6 | 13 | <4 | >501 | pest or weed control at 30 g/ha ([1]; Brassica napus, topical, 432 h, HETO108-HETO121, AI dose rate 30 gai/ha, field, 18 days after application, 0%=no phytotoxic effects, 100%=all plants killed, read-out: % phytotox): 3%; pest or weed control at 30 g/ha ([2]; Brassica napus, topical, 432 h, ABILITY, AI dose rate 30 gai/ha, field, 18 days after application, 0%=no phytotoxic effects, 100%=all plants killed, read-out: % phytotox): 98%; IC50 [3, 9]: > 100000 nM; IC50 [4, 9]: > 100000 nM; IC50 [5]: 200 nM; IC50 [6, 9]: 7.94 nM
2 | COc1cc(OC)nc(Oc2cccc(Oc3nc(OC)cc(OC)n3)c2C(=O)O)n1 [Bispyribac-sodium, bispyribac-sodium] | 4 | 398 | 13 | 5.8 | 79 | 6.1 | 40 | pest or weed control at 50 g/ha [1, 10]: 75%; pest or weed control at 50 g/ha [2, 11]: 100%; IC50 [3, 9]: 79.4 nM; IC50 [4, 9]: 7940 nM; IC50 [5]: 20 nM; IC50 [6, 9]: 251 nM
3 | CCOc1ccccc1OS(=O)(=O)NC(=O)Nc1nc(OC)cc(OC)n1 [Ethoxysulfuron, ethoxysulfuron] | – | – | – | – | – | – | – | pest or weed control at 180 g/ha ([1]; Brassica napus, topical, 432 h, HETO108-HETO121, AI dose rate 180 gai/ha, field, 18 days after application, 0%=no phytotoxic effects, 100%=all plants killed, read-out: % phytotox): 70%; pest or weed control at 180 g/ha ([2]; Brassica napus, topical, 432 h, ABILITY, AI dose rate 180 gai/ha, field, 18 days after application, 0%=no phytotoxic effects, 100%=all plants killed, read-out: % phytotox): 100%
4 | COc1cc(OC)nc(NC(=O)NS(=O)(=O)c2ncccc2C(F)(F)F)n1 [Flazasulfuron, flazasulfuron] | 126 | 3981 | 0 | 7.5 | 40 | 6.2 | 794 | pest or weed control at 50 g/ha [1, 10]: 80%; pest or weed control at 50 g/ha [2, 11]: 100%; IC50 [3, 9]: 100 nM; IC50 [4, 9]: 3160 nM; IC50 [5]: 0.794 nM; IC50 [6, 9]: 0.316 nM
5 | COc1ncc(F)c2nc(S(=O)(=O)Nc3c(F)cccc3F)nn12 [Florasulam, florasulam] | 25 | 1585 | 8 | 5.7 | 126 | 5.5 | 200 | % phytotox ([1]; HETO108-HETO121, AI dose rate 10 gai/ha, field, 18 days after application, 0%=no phytotoxic effects, 100%=all plants killed): 70%; % phytotox ([2]; ABILITY, AI dose rate 10 gai/ha, field, 18 days after application, 0%=no phytotoxic effects, 100%=all plants killed): 100%; pI50 P197S [3, 9]: 6.4; pI50 W574L [4, 9]: 4.6; pI50 WT [5]: 7.8; pI50 S653N [6, 9]: 6.9
6 | COC(=O)c1ccc(C(F)(F)F)nc1S(=O)(=O)NC(=O)Nc1nc(OC)cc(OC)n1 [Flupyrsulfuron-methyl, flupyrsulfuron-methyl-sodium] | – | – | – | – | – | – | – | pest or weed control at 10 g/ha [1, 12]: 35%; pest or weed control at 10 g/ha [2, 12]: 100%
7 | COC(=O)c1ccc(CNS(C)(=O)=O)cc1S(=O)(=O)NC(=O)Nc1nc(OC)cc(OC)n1 [Mesosulfaron-methyl, mesosulfuron-methyl] | 79 | 31623 | 16 | – | 200 | – | 794 | % phytotox ([1]; HETO108-HETO121, AI dose rate 15 gai/ha, field, 18 days after application, 0%=no phytotoxic effects, 100%=all plants killed): 30%; % phytotox ([2]; ABILITY, AI dose rate 15 gai/ha, field, 18 days after application, 0%=no phytotoxic effects, 100%=all plants killed): 99%
8 | COC(=O)c1ccccc1S(=O)(=O)NC(=O)Nc1nc(C)nc(OC)n1 [Metsulfuron-methyl, metsulfuron-methyl] | 50 | 1000 | 6 | – | 79 | – | 251 | % phytotox ([1]; HETO108-HETO121, AI dose rate 8 gai/ha, field, 18 days after application, 0%=no phytotoxic effects, 100%=all plants killed): 73%; % phytotox ([2]; ABILITY, AI dose rate 8 gai/ha, field, 18 days after application, 0%=no phytotoxic effects, 100%=all plants killed): 100%
9 | CCCOc1nn(C(=O)[N-]S(=O)(=O)c2ccccc2C(=O)OC)c(=O)n1C.[Na+] [Propoxycarbazone, propoxycarbazone-sodium] | 158 | 316 | 25 | – | 100 | – | 200 | % phytotox ([1]; HETO108-HETO121, AI dose rate 70 gai/ha, field, 18 days after application, 0%=no phytotoxic effects, 100%=all plants killed): 65%; % phytotox ([2]; ABILITY, AI dose rate 70 gai/ha, field, 18 days after application, 0%=no phytotoxic effects, 100%=all plants killed): 100%
10 | COC(=O)c1ccccc1S(=O)(=O)NC(=O)N(C)c1nc(C)nc(OC)n1 [Tribenuron-methyl, tribenuron-methyl] | – | – | – | – | – | – | – | pest or weed control at 20 g/ha ([1]; Brassica napus, topical, 432 h, HETO108-HETO121, AI dose rate 20 gai/ha, field, 18 days after application, 0%=no phytotoxic effects, 100%=all plants killed, read-out: % phytotox): 5%; pest or weed control at 20 g/ha ([2]; Brassica napus, topical, 432 h, ABILITY, AI dose rate 20 gai/ha, field, 18 days after application, 0%=no phytotoxic effects, 100%=all plants killed, read-out: % phytotox): 99%
11 | iodosulfuron-methyl-sodium [Iodosulfuron-methy-sodium] | 158 | 631 | 10 | – | 79 | – | – | % phytotox ([1]; HETO108-HETO121, AI dose rate 7 gai/ha, field, 18 days after application, 0%=no phytotoxic effects, 100%=all plants killed): 43%; % phytotox ([2]; ABILITY, AI dose rate 7 gai/ha, field, 18 days after application, 0%=no phytotoxic effects, 100%=all plants killed): 100%
